According to patent US20110206612A1, “NOVEL SCREENS TO IDENTIFY AGENTS THAT MODULATE RETINAL BLOOD VESSEL FUNCTION AND PERICYTE FUNCTION AND DIAGNOSTIC AND THERAPEUTIC APPLICATION THEREFOR” (UNIVERSITY OF TECHNOLOGY, SYDNEY, priority 2002, published 2011):
pEC50: −log10 of the molar value. Read-outs that look alike come from different tables or passages of the source.

Columns and labels:
[1] = system: pericytes stimulated by PACAP; assay: inhibition of PACAP-induced relaxation of pericytes on silicone substrate; format: cell-based
Method: The contractile state of the pericyte was quantified by counting the number of wrinkles (N) and the length of each wrinkle (l) in the thin shin sheet of silicone. From these observations an index of contractility (Ci) was developed from […]. An experiment to determine the effect of vasoactive agents was conducted by first quantifying Ci with the pericyte in physiological buffer (“control”). The Ci was quantified after exposing the pericytes to a vasoactive agent and allowing the pericyte to reach a steady-state level of contractility, which usually took 10 minutes. The effect of the vasoactive agent was determined by dividing by the Ci in the control condition and multiplying by 100 to obtain an index of effect (Ie,%) that was either less than 100 (pericyte relaxed relative to control) or greater than 100 (pericyte contracted relative to control). As a further control, incubations with buffer alone for the complete duration of exposure to each vasoactive agent were performed in conjunction with each experiment.
The present inventors further identified protein kinase A (PKA) as being affected by the increase in cAMP following the binding of PACAP or VIP. For this purpose cells were grown on silicone substrate and contacted by a 10^−8 M concentration of PACAP.
The present inventors have also shown that the relaxing effect of PACAP on pericyte contraction was in part mediated by the intracellular pathway that mobilises Ca^2+ from intracellular stores.

retinal pericytes = assay: cells; settings: for effect on contractile state of retinal pericytes (in words): pericytes on silicone substrate, 10 minutes per concentration
Method: A small volume of dimethylpolysiloxane (Sigma Chemical Co.) of either 60,000 cps (DMPS-60M) or 12,500 cps (DMPS-12M) viscosity was applied to 12 mm diameter glass cover slips. In some cases an intermediate viscosity dimethylpolysiloxane (30,000 cps) was prepared by blending 54% by weight of 60,000 cps dimethylpolysiloxane with 46% by weight of 12,500 cps dimethylpolysiloxane. The coated cover-slip was heated for 2 seconds using a Bunsen burner to induce cross-linking of the surface of the dimethylpolysiloxane and formation of a thin silicone rubber sheet bonded to the cover slip. After preparation, the cover slips were placed in 24-well tissue culture dishes and sterilised by UV irradiation overnight.
Pericytes from primary cultures (first passage) were plated on the cover slips in DMEM supplemented with 10% FCS.
The response of the cells to the antagonists was evaluated using phase contrast microscopy at room temperature. […] Cells were identified as relaxed when the tension wrinkles associated with them diminished in size, and completely relaxed when the wrinkles disappeared. Conversely, a pericyte contracted when there was an increase in the number and length of the wrinkles associated with the pericyte. During each experiment, an image of the pericytes was captured (videocamera and framegrabber) by the computer every minute. The wrinkles were analysed after the experiment from these captured images.
In each of the experiments, the length of each clearly discerned wrinkle associated with the cell was measured 3 times, and the average of the lengths was tabulated. The two ends of a wrinkle were determined by the contrast difference from the background on the picture. The contrast settings on the computer, videocamera or framegrabber were set at the commencement of an experiment and then not changed during the course of an experiment. Similarly, the focus of the microscope was set at the commencement of the experiment and then not changed during the course of an experiment. The depth (level) of solution in the bath was also kept constant, by aspirating and injecting each new solution at the same rate. Thus the only change in the image of the wrinkle (contrast, length) was due to the tension induced in the silicone substrate by the pericyte. The wrinkles during each experimental condition were counted from the photographs with help of a Zeiss videoplan.
The contractile state of the pericyte was quantified by counting the number of wrinkles (N) and the length of each wrinkle (l) in the thin shin sheet of silicone. From these observations an index of contractility (Ci) was developed from […]. An experiment to determine the effect of vasoactive agents was conducted by first quantifying Ci with the pericyte in physiological buffer (“control”). […] As a further control, incubations with buffer alone for the complete duration of exposure to each vasoactive agent were performed in conjunction with each experiment.
For this purpose cells were grown on silicone rubber. On the day of experiment the cells were rinsed with HEPES-buffered solution for 20 min at room temperature. Then the pericytes were exposed to norepinephrine (N5785, Sigma, USA) at different concentrations (10^−6M, 10^−5M, 10^−4 M) by a rapid exchange of the entire solution. The pericytes were exposed to each new drug concentration for a total of 10 minutes, with an image of the pericytes taken every 1 min.

## COc1ccc2c(c1)CC[C@@H]1[C@@H]2CC[C@]2(C)[C@@H](NCCCCCCN3C(=O)C=CC3=O)CC[C@@H]12 [U73122, 1-[6-([(17β)-3-Methoxyestra-1,3,5(10)-trien-17-yl]amino)hexyl]-1H-py-rrole-2,2-dione]
[1]; inhibitor at 10 μM
  effect on PACAP-induced relaxation of pericytes: antagonist of the PACAP-induced relaxation of pericytes

## CC[C@H](C)[C@H](NC(=O)[C@H](CO)NC(=O)[C@H](CC(N)=O)NC(=O)[C@H](CC(C)C)NC(=O)[C@H](Cc1ccc(O)cc1)NC(=O)[C@H](CCCCN)NC(=O)[C@H](CCCCN)NC(=O)[C@@H](NC(=O)[C@H](C)NC(=O)[C@H](CCSC)NC(=O)[C@H](CCC(N)=O)NC(=O)[C@H](CCCCN)NC(=O)[C@H](CCCNC(=N)N)NC(=O)[C@H](CC(C)C)NC(=O)[C@H](CCCNC(=N)N)NC(=O)[C@@H](NC(=O)[C@H](Cc1ccc(O)cc1)NC(=O)[C@H](CC(N)=O)NC(=O)[C@H](CC(=O)O)NC(=O)[C@@H](NC(=O)[C@H](Cc1ccccc1)NC(=O)[C@@H](NC(=O)[C@H](C)NC(=O)[C@H](CC(=O)O)NC(=O)[C@H](CO)NC(=O)[C@@H](N)Cc1c[nH]cn1)C(C)C)[C@@H](C)O)[C@@H](C)O)C(C)C)C(=O)N[C@@H](CC(C)C)C(=O)N[C@@H](CC(N)=O)C(N)=O [VIP, vasoactive intestinal polypeptide]
Retinal pericytes; read-out: EC50 concentration, effect on contractility of pericytes (relaxation), contractility index below 100 = relaxed, data averaged from cells, FIGS. 4, 5
  pEC50: 7.32

## Nc1ncnc2c1ncn2[C@@H]1O[C@@H]2COP(O)(=S)O[C@H]2[C@H]1O (single isomer, unassigned) [Rp-cAMPS, adenosine 3′,5′-cyclic monophosphothioate, Rp-isomer]
[1]; 10^−8 M PACAP, 10, 30, 100 μM added sequentially, 10 minutes each, FIG. 6, read-out: EC50 of inhibition of the relaxing effect of PACAP
  pEC50: 4.59

## NC[C@H](O)c1ccc(O)c(O)c1 [NE, norepinephrine]
Retinal pericytes
  effect on contractile state of retinal pericytes (in words): contracting in a dose-dependent manner
Retinal pericytes; read-out: EC50 of pericyte contraction of silicone substrate
  pEC50: 5.10
Retinal pericytes; retinal pericytes, FIG. 3
  concentration causing contraction of pericytes: greater than 10^−6 M
  concentration giving maximum enhancement of contractile state of the pericytes: 10^−4 M

## O=C(O)c1ccccc1Nc1cccc(C(F)(F)F)c1 [flufenamic acid]
Retinal pericytes
  effect on contractile state of retinal pericytes (in words): can influence the contractile state of retinal pericytes

## O=C(O)c1ccccc1Nc1ccccc1 [N-phenylanthranilic acid]
Retinal pericytes
  effect on contractile state of retinal pericytes (in words): can influence the contractile state of retinal pericytes

## O=S(=O)(NCCNCC=Cc1ccc(Br)cc1)c1cccc2cnccc12 [H-89, N-(2-[p-bromocinnamylamino]-ethyl)-5-isoquinolinesulfonamid-e]
[1]; 10^−8 M PACAP, inhibitor at 0.3 μM
  effect on the relaxing effect of PACAP: inhibited the relaxing effect

## C[C@@H](C(=O)O)c1ccc(-c2ccccc2)c(F)c1 [R-flurbiprofen, flurbiprofen]
Retinal pericytes
  effect on contractile state of retinal pericytes (in words): can influence the contractile state of retinal pericytes
